Experimental data: patent publication US20210138055A1, “COMPOSITIONS, METHODS AND USES FOR MODULATING THE TUMOR MICROENVIRONMENT TO ENHANCE ANTITUMOR IMMUNITY” (COLORADO STATE UNIVERSITY RESEARCH FOUNDATION, priority 2018, published 2021)

Tested on: monocytes from healthy dogs
Assay: Monocyte migration inhibition in vitro
Settings: at relevant serum concentrations (levels achieved by oral dosing); compared to positive and negative controls; FIG. 4

Row | Structure (SMILES) | monocyte migration inhibitory activity
1 | CCCCc1nc(Cl)c(CO)n1Cc1ccc(-c2ccccc2-c2nn[nH]n2)cc1 [losartan] | significant inhibitory activity
2 | CC(C)NCC(O)COc1cccc2ccccc12 (centres unmarked) [propranolol] | significant inhibitory activity
